Data taken from patent US20210388320A1, “DIFFERENTIATION-INDUCED CELL POPULATION FROM WHICH […] CELLS HAVE BEEN REMOVED, USE OF SAME, AND METHOD FOR PRODUCING SAME” (priority 2014, published 2021).

How the values were obtained:
[1] = tested on: human iPS cell strain 253G1; experiment: Microscope observation and crystal violet staining after JQ1 addition (Example 5); format: cell-based; settings: 0.2 μM or more of JQ1, 96 hours later
Method: (§1) Human iPS cell strain 253G1 was seeded in a 12-well plate (cell density: 20% confluency). Human fibroblasts (NHDF) were seeded in a 12-well plate (cell density: 50% confluency).
(§2) Thereafter, microscope observation was performed 96 hours later, and crystal violet staining was carried out to visualize the cells (FIG. 9).

[2] = tested on: normal human dermal fibroblasts (NHDF); experiment: as above; format: cell-based; settings: JQ1 up to 10 μM, 96 hours
Method: as §1, §2

[3] = tested on: TRA-1-60 positive cells in iPS-CM derived from human iPS cell strain MYH-GIP4; experiment: TRA-1-60 positive rate in iPS-CM treated with JQ1 (Example 7); format: cell-based
Method: After differentiation of undifferentiated pluripotent stem cells is induced, a cell dissociation reagent, such as Accutase, is applied to about 1×10^5 to 5×10^5 differentiated cells at 37° C. for 5 minutes, and differentiated cells are dissociated and collected by centrifugation. The differentiated cells are suspended in […] of PBS, and an anti-human TRA-1-60 antibody and an isotype control antibody, both of which are fluorescently labeled, are each added. Then, the resultants are each reacted at 4° C. for 20 minutes in a dark place. After the differentiated cells are washed with PBS and collected by centrifugation, they are each suspended in […] of PBS, passed through a cell strainer, and then collected in FACS tubes. In flow cytometry, fluorescent emission is detected by a detector corresponding to labeled fluorescence, and quantified. Fractions stained with the isotype control antibody are defined as negative fractions, whereas fractions with a higher fluorescence intensity are defined as positive fractions. Among fractions stained with the anti-human TRA-1-60 antibody, the ratio belonging to the positive fractions is expressed as a percentage.
iPS-CM derived from human iPS cell strain MYH-GIP4 was seeded in a 12-well plate (cell density: 90% confluency). […] Thereafter, the TRA-1-60 positive rate was quantified 96 hours after addition. […]

[4] = tested on: human iPS cell strain 253G1; experiment: Cell proliferation assay (CCK-8 assay) with JQ1 (Example 6); format: cell-based; settings: 0.2 μM or more of JQ1, 96 hours later
Method: Human iPS cell strain 253G1 was seeded in a 12-well plate (cell density: 20% confluency).
Thereafter, cell proliferation assay was performed 96 hours after addition (FIG. 10).

NHDF [5] = experiment: Cell proliferation assay (CCK-8 assay) with BV (Example 2); format: cell-based, human; settings: 0-50 μg/ml BV, 24-72 hours
Method: (§3) In order to clarify how the number of human iPS cells changed with various BV concentrations and BV treatment times, BV was added in vitro to human iPS cells, cell proliferation assay (CCK-8 assay), which reflects the number of cells, was performed, and viable cells were evaluated quantitatively.
Three human iPS cell strains (1231A3, MYH-GIP4, and 253G1) and NHDF were each seeded in a 12-well plate (cell density: 20% confluency). However, the cell density of NHDF was set to 50% confluency.
Forty-eight hours after seeding, 0, 5, 25, and 50 μg/ml of BV was added to each well (the agent-containing medium was exchanged every 24 hours). Thereafter, cell proliferation assay was performed 24 hours, 48 hours, and 72 hours after addition.

[6] = tested on: Human iPS cell strain MYH-GIP4; experiment: Microscope observation of cell death after BV addition (Example 1); format: cell-based; settings: 5 μg/ml BV, 48 to 72 hours later
Method: Human iPS cell strain MYH-GIP4 was seeded in a 12-well plate (cell density: 20% confluency). Forty-eight hours after seeding, 0, 0.05, and 5 μg/ml of an anti-CD30 antibody-binding agent (general name: Brentuximab vedotin, abbreviated as “BV”) (trade name: Adcetris (registered trademark)) was added to each well (the agent-containing medium was exchanged every 24 hours). Thereafter, microscope observation was performed every 24 hours. Since Adcetris (registered trademark) contains additives, in addition to BV, numerical values converted from the net weight of BV were described (i.e., “0, 0.05, and 5 μg/ml as BY”).

[7] = tested on: normal human dermal fibroblasts (NHDF); experiment: Microscope observation of cell death after BV addition, normal fibroblasts (Example 1); format: cell-based; settings: 5 μg/ml BV, 72 hours after addition
Method: Similarly, in order to examine the influence of BV on normal human dermal fibroblasts (NHDF), the same experiment as in Example 1 was conducted.
Human fibroblasts (NHDF) were seeded in a 12-well plate (cell density: 50% confluency). Forty-eight hours after seeding, 0, 0.05, and 5 μg/ml of BV was added to each well (the agent-containing medium was exchanged every 24 hours). Thereafter, microscope observation was performed every 24 hours.

NHDF [8] = experiment: Cell proliferation assay (CCK-8 assay) with BV (Example 3); format: cell-based, human; settings: 0.1-50 μg/ml BV, 72 hours
Method: as §3
(§4) Three human iPS cell strains (253G1, MYH-GIP4, and 201B7) and NHDF were each seeded in a 12-well plate (cell density: 20% confluency). However, the cell density of NHDF was set to 50% confluency.
(§5) Forty-eight hours after seeding, 0, 0.1, 0.25, 0.5, 1, 2.5, 5,10, 25, and 50 μg/ml of BV was added to each well (the agent-containing medium was exchanged every 24 hours). Thereafter, cell proliferation assay was performed 72 hours after addition.

[9] = tested on: Lin28 expression in iPS-CM derived from human iPS cell strain 253G1; experiment: Lin28 expression by quantitative PCR in iPS-CM treated with BV (Example 4); format: cell-based
Method: This method is targeted for human iPS cell-derived cardiomyocytes (iPS-CM). iPS-CM is considered to contain tumorigenic undifferentiated cells, in addition to cardiomyocytes.
The method for inducing differentiation into cardiomyocytes was performed according to the following document: Matsuura K, et al. Creation of human cardiac cell sheets using pluripotent stem cells. Biochem Biophys Res Commun, 2012, and 425(2) pp. 321-7. iPS-CM derived from human iPS cell strain 253G1 was seeded in a 12-well plate (cell density: 90% confluency). Forty-eight hours after seeding, 0, 5, and 10 μg/ml of BV was added to each well (the agent-containing medium was exchanged every 24 hours). Thereafter, mRNA was extracted 72 hours and 96 hours after addition. Lin28 expression levels were quantified by quantitative PCR.

[10] = tested on: human iPS cell strains (253G1, MYH-GIP4, and 201B7); experiment: Cell proliferation assay (CCK-8 assay) with BV (Example 3); format: cell-based; settings: 72 hours after treatment with 50 μg/ml BV, all the human iPS cells
Method: as §3, §4, §5

Compound	cell death (microscope observation, crystal violet staining) [1]	cell death (microscope observation, crystal violet staining) [2]	TRA-1-60 positive rate ([3]; 1 μM JQ1, 96 hours after addition)	TRA-1-60 positive rate ([3]; 5 μM JQ1, 96 hours after addition)	cell proliferation rate [4]	effect of BV on number of cells (NHDF [5])	cell death (microscope observation) [6]	induction of cell death (macroscopic observation) [7]	effect of BV on cell proliferation (NHDF [8])	expression of undifferentiated marker Lin28, of the control group (BV: 0 μg/ml) ([9]; 72-hour treatment, BV 5 and 10 μg/ml)	Lin28 expression level, pure human iPS cells regarded as 100% ([9]; 72nd hour, BV-added groups)	cell proliferation [10]
Cc1sc2c(c1C)C(c1ccc(Cl)cc1)=N[C@@H](CC(=O)OC(C)(C)C)c1nnc(C)n1-2 [JQ1]	complete cell death was induced	cell death was not observed	0.2%	0.1%	≤ 10%	–	–	–	–	–	–	–
Brentuximab vedotin [BV]	–	–	–	–	–	hardly affected	cell death was partially induced	induction of cell death was not observed macroscopically	hardly affected	about 50%	about 0.3%	≤ 20%
